“Also recorded” adds a separate entry of the source.
How the values were obtained:
Assay type in all cases: physicochemical
[1] = Stability in solvent slurry system (interconversion of crystalline forms, final form identified by DSC); conditions: for Final form (DSC peak): slurry; for Interconversion of crystalline form while stirred in solvent: stirred in the solvent for 24 hours, various solvents (summary of Table 4)
Method: 1) Measurement of Stability in Solvent Slurry System
In order to determine whether one crystalline form is interconverted into another crystalline form in a stirred solvent, a slurry test was performed in different solvents at room temperature.
First, an automated polyblock reactor was filled with each of the solvents listed in Table 4 below at room temperature (30±5° C.). […] Thereafter, an anti-solvent listed in Table 4 below (n-butanol or IPA) was added into the reactor for 30±15 minutes and stirred for 30±15 minutes until a transparent solution was obtained. The resultant was cooled to a temperature of 0±5° C., stirred for 2-3 hours, and then filtered at 0±5° C. The obtained material was dried at 60±5° C. for 3 to 4 hours in VTD, and then DSC analysis was performed for the obtained sample to identify the final crystalline form.
DSC analysis was performed for the obtained sample to identify the final crystalline form.

[2] = Interconversion at high temperature (final form identified by DSC); conditions: for Final form (DSC peak): dried at 80±5° C. in non-vacuum state, then cooled to 30±5° C., methanesulfonate; for Stability at high temperature: summary of Table 5
Method: 2) Measurement of Interconversion at High Temperature
In order to determine the interconversion of crystalline forms at a high temperature, each of Crystalline Forms 1 and 5 was dried at 80±5° C. in non-vacuum state, and then cooled to a temperature of 30±5° C. DSC analysis was performed for the obtained samples to identify the final crystalline form.

[3] = Stability under physical stimulus (multi-milling, manual grinding, humidification; final form identified by DSC); conditions: methanesulfonate; for Stability under physical stimulus: milling, grinding and humidification (summary of Table 6)
Method: 3) Measurement of Stability Under Physical Stimulus
Multi-milling, manual grinding and humidification test were performed for the crystalline forms of the present invention to confirm their stability under physical stimulus. For multi-milling test, each of Crystalline Forms 1 and 5 was milled at 3,000 rpm by using a prototype multi-mill instrument (Sreenex Machines Pvt. Ltd.). For manual grinding, each of the crystalline forms was gradually ground by using a pestle and mortar. In the humidification test, Crystalline Forms 1 and 5 were stored at 30° C. and 90% RH for 24 hours.
DSC analysis was performed for the crystalline forms obtained from the tests to identify the final crystalline form.

[4] = Solubility in methanol solvent; conditions: in the methanol solvent; methanesulfonate
Method: The solubility of each of Crystalline Forms 1 and 5 of the present invention was measured after being dissolved in the methanol solvent.

[5] = Stability in solvent slurry system (interconversion of crystalline forms, final form identified by DSC); conditions: Dimethyl acetamide: EA, solvent 3 vol, anti-solvent 20 vol
[6] = Methanol: IPA, solvent 7 vol, anti-solvent 20 vol, methanesulfonate
[7] = Methanol: n-butanol, solvent 7 vol, anti-solvent 20 vol, methanesulfonate
[8] = solvent system Acetonitrile 10 vol, no anti-solvent, methanesulfonate
[9] = solvent system Isopropyl alcohol (IPA) 10 vol, no anti-solvent, methanesulfonate

Row | Compound | Final form (DSC peak) [1, 6] | Final form (DSC peak) [1, 7] | Final form (DSC peak) [1, 8] | Final form (DSC peak) ([1]; solvent system Hexane 10 vol, no anti-solvent) | Final form (DSC peak) [1, 9] | Interconversion of crystalline form while stirred in solvent ([1]; methanesulfonate) | Final form (DSC peak) [2] | Stability at high temperature [2] | Final form ([3]; Humidification, stored at 30° C. and 90% RH for 24 hours) | Final form ([3]; Manual grinding with pestle and mortar) | Final form ([3]; Multi-milling at 3,000 rpm) | Stability under physical stimulus [3] | solubility [4] | Final form (DSC peak) ([1]; solvent system Ethyl acetate (EA) 10 vol, no anti-solvent) | Final form (DSC peak) ([1]; solvent system Heptane 10 vol, no anti-solvent) | Final form (DSC peak) ([1]; solvent system Methyl tert-butyl ether (MTBE) 10 vol, no anti-solvent) | Final form (DSC peak) ([1]; solvent system n-butanol 10 vol, no anti-solvent) | Final form (DSC peak) [5]
1 | O=C(NC[C@H]1CN(c2ccc(N3CCNC=N3)cc2)C(=O)O1)c1ccc(Cl)s1 [Crystalline Form 1, 5-chloro-N-({(5S)-2-oxo-3-[4-(5,6-dihydro-4H-[1,2,4]triazin-1-yl)phenyl]-1,3-oxazolidin-5-yl}methyl)thiophene-2-carboxamide methanesulfonate] | Mixed crystalline forms | Crystalline Form 5 (187.7) | Mixed crystalline forms | Mixed crystalline forms | Crystalline Form 5 (187.0) | tends to convert into Crystalline Form 5 | Crystalline Form 1 (178.0) | stable at high temperature | Crystalline Form 1 | Crystalline Form 1 | Crystalline Form 1 | stability without change of crystalline forms; also recorded: stable under physical stimulus | 70 mg/mL | – | – | – | – | –
2 | O=C(NC[C@H]1CN(c2ccc(N3CCNC=N3)cc2)C(=O)O1)c1ccc(Cl)s1 [Crystalline Form 5, 5-chloro-N-({(5S)-2-oxo-3-[4-(5,6-dihydro-4H-[1,2,4]triazin-1-yl)phenyl]-1,3-oxazolidin-5-yl}methyl)thiophene-2-carboxamide methanesulfonate] | Crystalline Form 5 (186.80) | Crystalline Form 5 (186.27) | Crystalline Form 5 (186.88) | – | Crystalline Form 5 (186.33) | maintains the initial form | Crystalline Form 5 (187.0) | stable at high temperature | – | – | – | stability without change of crystalline forms; also recorded: stable under physical stimulus | 30 mg/mL | Crystalline Form 5 (186.48) | Crystalline Form 5 (186.44) | Crystalline Form 5 (186.45) | Crystalline Form 5 (186.76) | Crystalline Form 5 (187.05)

— patent publication US9988372B2, “Crystalline form of 5-chloro-N-({(5S)-2-oxo-3-[4-(5,6-dihydro-4H-[1,2,4]triazin-1-yl)phenyl]-1,3-oxazolidin-5-yl}methyl)thiophene-2-carboxamide methanesulfonate and pharmaceutical composition comprising same” (GREEN CROSS CORPORATION, priority 2014, dated 2018)
